Source: patent publication US20240238314A1, “TREATMENT OF ESSENTIAL TREMOR” (Sage Therapeutics, Inc., priority 2021, published 2024)

Tested on: individuals with essential tremor
Experiment: Phase 2 study, Compound 1 60 mg once daily for 28 days: TETRAS performance subscale total score
Assay type: in vivo, human
Settings: Full Analysis Set
Protocol: As used herein, “The Essential Tremor Rating Assessment Scale (TETRAS) performance subscale total score” refers to an assessment scale for essential tremor developed by The Tremor Research Group (Elble, R. J., J. Neurol. Neuromedicine 1(4):34-38 (2016); Elble, R. J. et. al., Mov. Disord. 27(12); 1567-1569 (2012)). The TETRAS […] performance subscale includes 9 metrics or characteristics, wherein each metric or characteristic is scored 0 to 4. Some metrics or characteristics are performed on both right and left limbs and/or include multiple subitems. Scores for each of the 9 characteristics are then added to give a total score of no greater than 64. The 9 metrics or characteristics include:
Participants were 18 to 80 years of age, inclusive, diagnosed of ET of at least 3 years duration with scores of at least 1.5 for each of the six items that comprised the combined total upper limb TETRAS (total performance subscale part 4) with the total score for the dominant upper limb (the sum of the 3 items for either the right or left upper limb, whichever is dominant) being at least 5.5, at both Screening and predose on Day 1.
Participants were randomized to receive Compound 1 60 mg or placebo once daily in the morning on a 1:1 basis. If participants reported a TEAE considered by investigator to be related to Compound 1 and not tolerable, investigator might reduce the dose of Compound 1 from 60 mg in 15 mg decrements (i.e., 60 mg, to 45 mg, to 30 mg), as medically appropriate. If intolerable TEAEs persist at the 30 mg dose, Compound 1 was permanently stopped.
This study included a Screening Period of up to 28 days, a 29-day treatment period consisting of 28 days of dosing with the end of treatment visit intended to be on Day 29 at trough, and a 14-day follow-up period relative to final dose. Study patients were not taking other medications for essential tremor during the 28-day treatment period.

SMILES: COC[C@@]1(O)CC[C@H]2[C@@H](CC[C@@H]3[C@@H]2CC[C@]2(C)[C@@H](C(=O)Cn4nnc(C)n4)CC[C@@H]32)C1 [Compound 1]
- LSMean difference vs placebo in change from baseline in TETRAS performance subscale total score (Day 8): −1.26
- Model-based LSMean (SE) change from baseline in TETRAS performance subscale total score (Day 8): −3.55 (0.780)
- LSMean difference vs placebo in change from baseline in TETRAS performance subscale total score (Day 15, 5 hr postdose): −1.52
- Model-based LSMean (SE) change from baseline in TETRAS performance subscale total score (Day 15, 5 hr postdose): −5.90 (1.015)
- LSMean difference vs placebo in change from baseline in TETRAS performance subscale total score (Day 15, 8 hr postdose): 0.01
- Model-based LSMean (SE) change from baseline in TETRAS performance subscale total score (Day 15, 8 hr postdose): −4.61 (0.954)
- LSMean difference vs placebo in change from baseline in TETRAS performance subscale total score (Day 15, predose): −0.91
- Model-based LSMean (SE) change from baseline in TETRAS performance subscale total score (Day 15, predose): −3.46 (0.878)
- LSMean difference vs placebo in change from baseline in TETRAS performance subscale total score (Day 22): −0.24
- Model-based LSMean (SE) change from baseline in TETRAS performance subscale total score (Day 22): −3.16 (0.914)
- LSMean difference vs placebo in change from baseline in TETRAS performance subscale total score (Day 29): −0.32 (−2.78, 2.14)
- Model-based LSMean (SE) change from baseline in TETRAS performance subscale total score (Day 29): −3.22 (0.922)
- LSMean difference vs placebo in change from baseline in TETRAS performance subscale total score (Day 29, listed as Cmpd 1): −0.32
- LSMean difference vs placebo in change from baseline in TETRAS performance subscale total score (Day 42): 2.28
- Model-based LSMean (SE) change from baseline in TETRAS performance subscale total score (Day 42): −1.59 (0.820)
